# Assay results taken from patent US11130780B2, “Inhibitors of growth factor activation enzymes” (Washington University, priority 2015, dated 2021).
# Read-outs that look alike come from different tables or passages of the source. Residues, ends and D or L forms follow the SMILES beside them. *: point of attachment. AMC = Cc1cc(=O)oc2cc(N*)ccc12; Boc = CC(C)(C)OC(=O)*
# Tests used:
# matriptase [1] = target: T1, matriptase (Homo sapiens, UniProt Q9Y5Y6); assay: Km determination of fluorogenic substrate with matriptase; type: biochemical
# T1 construct: Charles Craik, UCSF (obtained from another laboratory)
# T1 sequence (Q9Y5Y6 615-855 limits assumed): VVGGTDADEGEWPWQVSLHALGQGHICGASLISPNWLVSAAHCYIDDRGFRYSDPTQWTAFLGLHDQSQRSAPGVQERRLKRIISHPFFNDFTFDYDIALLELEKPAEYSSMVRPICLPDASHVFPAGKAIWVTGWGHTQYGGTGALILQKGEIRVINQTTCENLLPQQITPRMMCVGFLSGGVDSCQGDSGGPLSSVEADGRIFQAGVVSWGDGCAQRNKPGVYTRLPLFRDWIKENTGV
# Experimental: (§1) In black 384 well plates (Corning #3575), 12.5 nM HGFA was mixed with various amounts of Boc-QLR-AMC and 1 nM matriptase and 0.3 nM hepsin were mixed with various amounts of Boc-QAR-AMC. Changes in fluorescence (excitation at 380 nm and emission at 460 nn) were measured at room temperature over time in a Biotek Synergy 2 plate reader (Winnoski, Vt.). Using plots of the mean reaction velocity versus substrate concentration and the Michaelis-Menten enzyme kinetics equation within GraphPad Prism version 6.04 for Windows (GraphPad Software, San Diego, Calif., www.graphpad.com), the reaction Vmax and subsequent Km for each of the substrates were determined.
# HGFA [2] = target: T2, HGFA (Homo sapiens, UniProt Q04756); assay: Km determination of fluorogenic substrate with HGFA; type: biochemical
# T2 construct: His6 tag (N); seven amino acid spacer and seven amino acid TEV cleavage site (N); Honey Bee melittin signal peptide (N); made in house; host or cells: High 5 insect cells (baculovirus; virus raised in Sf9)
# T2 sequence (Q04756 373-655): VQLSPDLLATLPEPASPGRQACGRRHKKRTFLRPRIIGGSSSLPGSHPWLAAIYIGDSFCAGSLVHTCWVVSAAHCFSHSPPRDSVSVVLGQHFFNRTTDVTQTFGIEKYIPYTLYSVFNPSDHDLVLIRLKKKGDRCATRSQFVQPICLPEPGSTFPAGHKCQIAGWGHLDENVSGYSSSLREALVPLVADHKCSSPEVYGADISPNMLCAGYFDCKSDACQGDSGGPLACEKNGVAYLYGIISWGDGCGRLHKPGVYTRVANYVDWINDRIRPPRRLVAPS
# Experimental: as §1
# thrombin = thrombin (Homo sapiens, UniProt P00734); assay: Chromogenic kinetic enzyme assay of thrombin; type: biochemical
# Experimental: (§2) Inhibitors (11-pt serial dilutions, 0-20 μM final concentration) were serially diluted in DMSO (2% DMSO final concentration) and then mixed with recombinant thrombin (0.15 nM final concentration) or Factor Xa (0.35 nM final concentration) in TNC buffer (25 mM Tris, 150 mM NaCl, 5 mM CaCl2, 0.01% TRITON X-100, pH 8) using clear 384 well plates. […] Changes in absorbance at 405 nm were measured over time in a Biotek Synergy 2 plate (Winnoski, Vt.). Using GraphPad Prism version 6.04 software program, (GraphPad Software, San Diego, Calif., www.graphpad.com), a four parameter curve fit was used to determine the inhibitor IC50s from a plot of the mean reaction velocity versus the inhibitor concentration. Ki values were calculated from the IC50 values using the Cheng and Prusoff equation (Ki=IC50/(1+[S]/Km).
# matriptase [3] = target: T1, matriptase; assay: Fluorescent kinetic enzyme inhibitor assay of matriptase; type: biochemical; conditions: Fluorogenic Assay
# Outline: (§3)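 Fluorescence (ex 380/em 460 nm) followed kinetically at room temperature; IC50 from four-parameter fit of mean velocity versus concentration, averaged over three experiments.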
# Factor Xa = Factor Xa (Homo sapiens, UniProt P00742); assay: Chromogenic kinetic enzyme assay of Factor Xa; type: biochemical
# Factor Xa, sequence (P00742 235-488 limits assumed): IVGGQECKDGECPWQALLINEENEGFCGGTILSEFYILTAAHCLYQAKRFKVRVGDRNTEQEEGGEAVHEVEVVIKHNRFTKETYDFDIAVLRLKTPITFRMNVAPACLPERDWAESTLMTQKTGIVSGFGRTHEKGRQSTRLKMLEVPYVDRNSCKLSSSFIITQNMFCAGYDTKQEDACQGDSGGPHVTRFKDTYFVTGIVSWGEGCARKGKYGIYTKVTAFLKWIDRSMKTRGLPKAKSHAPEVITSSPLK
# Factor Xa, sequence (P00742 41-179 partner limits assumed): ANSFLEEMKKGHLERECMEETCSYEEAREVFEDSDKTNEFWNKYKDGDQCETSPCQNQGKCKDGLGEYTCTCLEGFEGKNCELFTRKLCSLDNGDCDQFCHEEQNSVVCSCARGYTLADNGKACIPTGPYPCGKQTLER
# Experimental: as §2
# hepsin = target: T3, hepsin (Homo sapiens, UniProt P05981); assay: Fluorescent kinetic enzyme inhibitor assay of hepsin; type: biochemical; conditions: Table 9.1; Fluorogenic Assay; read-out: Hepsin Ki
# T3 construct: purchased R&D Systems 4776-SE-010
# T3 sequence (P05981 163-417 limits assumed): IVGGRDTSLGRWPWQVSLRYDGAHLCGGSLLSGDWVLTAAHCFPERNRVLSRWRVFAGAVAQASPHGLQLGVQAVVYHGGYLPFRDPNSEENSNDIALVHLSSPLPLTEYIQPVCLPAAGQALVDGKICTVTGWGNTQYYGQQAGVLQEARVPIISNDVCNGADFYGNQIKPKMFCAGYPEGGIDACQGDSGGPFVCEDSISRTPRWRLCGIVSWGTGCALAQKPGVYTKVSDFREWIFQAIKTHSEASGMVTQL
# T3 sequence (P05981 45-162 partner limits assumed): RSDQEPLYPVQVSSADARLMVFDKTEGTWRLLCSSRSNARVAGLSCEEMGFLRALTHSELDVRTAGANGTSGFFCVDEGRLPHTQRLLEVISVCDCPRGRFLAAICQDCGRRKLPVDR
# Outline: as §3
# Trypsin = Trypsin selectivity assay; type: biochemical
# HGFA [4] = target: T2, HGFA; assay: Fluorescent kinetic enzyme inhibitor assay of HGFA; type: biochemical; conditions: for Ki: Fluorogenic Assay, read-out: HGFA Ki
# Outline: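 Recombinant His-tagged HGFA residues 373-655 from insect cells, with substrate at Km. Inhibitors in 11-point dilutions, 0-20 μM final, 2% DMSO, fluorescence (ex 380/em 460 nm) followed over time at room temperature. IC50 from four-parameter fit of mean velocity, average of three experiments.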
# MDA-MB-231 cells = assay: MRC5-mediated migration and invasion of MDA-MB-231 cells through Matrigel; type: cell-based, human; conditions: 1 μM, 24 hour
# Experimental: MRC5 fibroblasts were plated in the bottom well of a Boyden chamber, and incubated overnight to condition the attractant media. The following day, MDA-MB-231 or T47D cells+/−inhibitors were plated above on Matrigel coated inserts (8.0 μm membrane inserts, 12-well; Corning 3422) and incubated in FBS media overnight. Inhibitors were added to fresh media and then cells were plated above on the inserts. The cells were fixed and stained at the 24 hour time point. The inserts were then removed and mounted on glass plates where the number of migrated cells were imaged and counted at 4 fields per membrane using a light microscope at 20×.
# HGFA [5] = target: T4, HGFA (Homo sapiens, UniProt Q04756); assay: Kinetic parameters of ACC substrates (Table 11.4); type: biochemical
# T4 sequence (Q04756 408-655 limits assumed): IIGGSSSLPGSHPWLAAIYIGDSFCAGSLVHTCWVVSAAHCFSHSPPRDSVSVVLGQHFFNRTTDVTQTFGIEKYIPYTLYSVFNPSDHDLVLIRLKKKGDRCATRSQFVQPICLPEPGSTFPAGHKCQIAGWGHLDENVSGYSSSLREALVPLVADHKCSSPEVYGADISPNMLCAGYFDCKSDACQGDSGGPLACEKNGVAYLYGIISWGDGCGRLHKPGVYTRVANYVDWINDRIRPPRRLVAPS
# T4 sequence (Q04756 373-407 partner limits assumed): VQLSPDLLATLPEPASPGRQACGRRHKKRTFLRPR
# From the text: Results for MSP-MS profiling for HGFA substrate cleavage and specificity can be seen in FIG. 20 and Tables 11.1-11.4. IceLogo graphs can be seen in FIGS. 21A and 21B.
# [6] = Table 6.2, headed Fluorogenic Assay
# [7] = Table 6.2, headed Fluorogenic Assay, read-out: Thrombin Ki
# [8] = Table 6.2, headed Fluorogenic Assay, read-out: Factor Xa Ki
Compound,Ki (Trypsin; [6]),Ki (HGFA [4]; Table 6.1),Ki (thrombin; [7]),Ki (Factor Xa; [8]),other results
Cc1cc(=O)oc2cc(NC(=O)[C@H](CCCNC(=N)N)NC(=O)[C@H](C)NC(=O)[C@H](CCC(N)=O)NC(=O)OC(C)(C)C)ccc12 [Boc-QAR-AMC] (Boc-Gln-Ala-Arg-{AMC}),–,–,–,–,Km (matriptase [1]): 93 µM
Cc1cc(=O)oc2cc(NC(=O)[C@H](CCCNC(=N)N)NC(=O)[C@H](CC(C)C)NC(=O)[C@H](CCC(N)=O)NC(=O)OC(C)(C)C)ccc12 [Boc-QLR-AMC] (Boc-Gln-Leu-Arg-{AMC}),–,–,–,–,Km (HGFA [2]): 37 µM
"N=C(N)c1cccc(C[C@H](NS(=O)(=O)c2ccc3ccccc3c2)C(=O)N2CCN(C(=O)NCc3ccc(Br)cc3)CC2)c1 [Compound 25a, (S)—N-(4-Bromobenzyl)-4-(3-(3-carbamimidoylphenyl)-2-(naphthalene-2-sulfonamido)propanoyl)piperazine-1-carboxamide]",–,–,–,–,"Ki (thrombin; Table 9.4, read-out: Thrombin Ki): 3110 nM; Ki (matriptase [3]; Table 9.1): 4200 nM; Ki (Factor Xa; Table 9.4, read-out: Factor Xa Ki): 4560 nM; Ki (hepsin): 48 nM; Ki (Trypsin; Table 9.4): 2.2 nM; Ki (HGFA [4]; Table 9.1): 16200 nM"
"CC(=O)N[C@@H](CCCCN)C(=O)N[C@@H](CCC(N)=O)C(=O)N[C@@H](CC(C)C)C(=O)N[C@@H](CCCNC(=N)N)C(=O)c1nc2ccccc2s1 [Compound 7006, Ac-KQLR(SEQ ID NO: 1)-Kbt]",0.24 nM,30 nM,–,–,Ki (thrombin): > 20000 nM; Ki (Factor Xa): 129 nM; fold increase in HGFA potency (HGFA [4]; versus parent compound): 2 fold
"CC(=O)N[C@@H](CO)C(=O)N[C@@H](CCCCN)C(=O)N[C@@H](CC(C)C)C(=O)N[C@@H](CCCNC(=N)N)C(=O)c1nc2ccccc2s1 [Compound 7053, Ac-SKLR(SEQ ID NO: 10)-Kbt]",0.16 nM,33 nM,–,–,Ki (thrombin): > 20000 nM; Ki (Factor Xa): 1900 nM
"CC(=O)N[C@@H](CCCCN)C(=O)N[C@@H](CCCNC(=N)N)C(=O)N[C@@H](CC(C)C)C(=O)N[C@@H](CCCNC(=N)N)C(=O)c1nc2ccccc2s1 [Compound 7054, Ac-KRLR(SEQ ID NO: 8)-Kbt]",0.82 nM,6 nM,> 20000 nM,91.9 nM,MRC5-mediated migration and invasion (MDA-MB-231 cells): abrogate
"CC(=O)N[C@@H](Cc1ccccc1)C(=O)N[C@@H](CC(C)C)C(=O)N[C@@H](Cc1ccccc1)C(=O)N[C@@H](CCCNC(=N)N)C(=O)c1nc2ccccc2s1 [Compound 7063, Ac-FLFR(SEQ ID NO: 19)-Kbt]",0.27 nM,114 nM,> 20000 nM,13.1 nM,Ki (matriptase [3]; Table 6.1): 3.6 nM
"CC(C)C[C@H](NC(=O)[C@H](CCCNC(=N)N)NC(=O)[C@@H](N)Cc1c[nH]c2ccccc12)C(=O)N[C@@H](CCCNC(=N)N)C(=O)c1nc2ccccc2s1 [Compound 7117, H-WRLR(SEQ ID NO: 9)-Kbt]",0.96 nM,8.75 nM,4890 nM,2.4 nM,–
"COC(=O)c1ccc(CNC(=O)c2ccc3nc(C(=O)[C@H](CCCNC(=N)N)NC(=O)[C@H](CC(C)C)NC(=O)[C@H](CCCNC(=N)N)NC(=O)[C@H](CCCCN)NC(C)=O)sc3c2)cc1 [Compound 7158, Ac-KRLR(SEQ ID NO: 8)-kbt-Benzyl-4-COOMe]",0.05 nM,5.85 nM,20.9 nM,9 nM,–
"COC(=O)c1cccc(CNC(=O)c2ccc3nc(C(=O)[C@H](CCCNC(=N)N)NC(=O)[C@H](CC(C)C)NC(=O)[C@H](CCCNC(=N)N)NC(=O)[C@H](CCCCN)NC(C)=O)sc3c2)c1 [Compound 7159, Ac-KRLR(SEQ ID NO: 8)-kbt-Benzyl-3-COOMe]",0.04 nM,7.76 nM,85.4 nM,14 nM,–
"N=C(N)NCCC[C@H](NC(=O)[C@H](Cc1ccccc1)NC(=O)OCC1c2ccccc2-c2ccccc21)C(=O)c1nc2ccccc2s1 [Compound 7187-14, Fmoc-FR-kbt]",14.3 nM,964 nM,> 2000 nM,28.4 nM,–
Ac-His(3Bom)-Agp-hLeu-Arg-ACC,–,–,–,–,Km (HGFA [5]): 52.1 µM
